# Measured values taken from patent US20250312310A1, “Beta2-adrenergic receptor antagonists for use in treating diabetes or obesity” (NovelYeast bv, priority 2021, published 2025).
# Biological target: human β2-AR (Homo sapiens, UniProt P07550)
# Test: Competitive radioligand binding assay with 125I-cyanopindolol on membrane vesicles
# Set-up: purchased PerkinElmer RBHBE2M
# Conditions: maximal increase with increasing concentrations
# Method: TRIS-HCl buffer containing MgCl2 and EGTA was used as incubation and assay buffer, while TRIS-HCl buffer was used as wash buffer. All buffers were cooled and all further steps performed on ice. Membranes were diluted 150 times in assay buffer. […] The mixtures were incubated for 1 h at ambient temperature, and subsequently filtered using a vacuum pump over GF/C filters (Whatman), pre-soaked in 0.5% polyethyleneimine.
# Chain of human β2-AR (P07550 whole entry): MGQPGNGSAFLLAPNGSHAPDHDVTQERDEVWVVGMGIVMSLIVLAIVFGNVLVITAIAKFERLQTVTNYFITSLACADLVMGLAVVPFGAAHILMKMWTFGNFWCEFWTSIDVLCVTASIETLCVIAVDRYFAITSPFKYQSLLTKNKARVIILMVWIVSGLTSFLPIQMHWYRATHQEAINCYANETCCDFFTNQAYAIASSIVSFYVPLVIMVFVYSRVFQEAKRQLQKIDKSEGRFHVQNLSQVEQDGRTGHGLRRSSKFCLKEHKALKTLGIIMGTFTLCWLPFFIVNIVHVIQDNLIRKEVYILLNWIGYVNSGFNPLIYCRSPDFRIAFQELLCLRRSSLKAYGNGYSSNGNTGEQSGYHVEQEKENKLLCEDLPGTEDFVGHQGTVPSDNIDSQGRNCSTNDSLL
smiles,measurement,value
[Cl-].[Na+] [NaCl],Increase of 125I-cyanopindolol binding,roughly 35%
